From US6960574B2, “Antagonists of RF-amide neuropeptides” (University of Florida, priority 2002, dated 2005)
Peptide text beside a SMILES is read from it. * marks the point of attachment. Dansyl = CN(C)c1cccc2c(S(=O)(=O)*)cccc12

system: receptor labeled by the radioiodinated analogue of 1 (4, [125I]-YLFQPQRF-NH2); neuropeptide FF receptor; assay: Competitive radioligand binding against 4 ([125I]Y8F-amide); settings: mixture-based positional scanning; difference from averaged radioligand displacement of whole library (0); about 80 a.u. = 10-fold change in Ki

First: CN(C)c1cccc2c(S(=O)(=O)N[C@@H](CCC(=O)O)C(=O)N3CCC[C@H]3C(=O)N[C@@H](CCCNC(=N)N)C(N)=O)cccc12 [Dansyl-EPR-amide] (Dansyl-Glu-Pro-Arg-NH2)
Second: CN(C)c1cccc2c(S(=O)(=O)N[C@@H](CCC(N)=O)C(=O)N3CCC[C@H]3C(=O)N[C@@H](CCCNC(=N)N)C(N)=O)cccc12 [Dansyl-QPR-amide] (Dansyl-Gln-Pro-Arg-NH2)
The “Relative Binding Index (RBI)” value of the first is lower: 20 a.u for the first, 25 a.u for the second.

Going from `CN(C)c1cccc2c(S(=O)(=O)N[C@@H](Cc3ccccc3)C(=O)N[C@@H](Cc3cnc[nH]3)C(=O)N[C@@H](CCCNC(=N)N)C(N)=O)cccc12` [Dansyl-FHR-amide] (Dansyl-Phe-His-Arg-NH2) to `CN(C)c1cccc2c(S(=O)(=O)N[C@@H](Cc3cnc[nH]3)C(=O)N[C@@H](Cc3c[nH]c4ccccc34)C(=O)N[C@@H](CCCNC(=N)N)C(N)=O)cccc12` [Dansyl-HWR-amide] (Dansyl-His-Trp-Arg-NH2), the “Relative Binding Index (RBI)” value rises from 4 a.u to 26 a.u.

Compared with `C[C@H](NS(=O)(=O)c1cccc2c(N(C)C)cccc12)C(=O)N[C@@H](CC(N)=O)C(=O)N[C@@H](CCCNC(=N)N)C(N)=O` [Dansyl-ANR-amide] (Dansyl-Ala-Asn-Arg-NH2), `CC(C)[C@H](NS(=O)(=O)c1cccc2c(N(C)C)cccc12)C(=O)N[C@@H](CC(N)=O)C(=O)N[C@@H](CCCNC(=N)N)C(N)=O` [Dansyl-VNR-amide] (Dansyl-Val-Asn-Arg-NH2) is lower in “Relative Binding Index (RBI)” value: 13 a.u for the first, −3 a.u for the second.

First: CC(C)[C@H](NS(=O)(=O)c1cccc2c(N(C)C)cccc12)C(=O)N[C@@H](C)C(=O)N[C@@H](CCCNC(=N)N)C(N)=O [Dansyl-VAR-amide] (Dansyl-Val-Ala-Arg-NH2)
Second: CC[C@H](C)[C@H](NS(=O)(=O)c1cccc2c(N(C)C)cccc12)C(=O)N[C@@H](C)C(=O)N[C@@H](CCCNC(=N)N)C(N)=O [Dansyl-IAR-amide] (Dansyl-Ile-Ala-Arg-NH2)
The “Relative Binding Index (RBI)” value of the first is higher: −53 a.u for the first, −60 a.u for the second.

Going from `CC(C)C[C@H](NS(=O)(=O)c1cccc2c(N(C)C)cccc12)C(=O)N[C@@H](C)C(=O)N[C@@H](CCCNC(=N)N)C(N)=O` [Dansyl-LAR-amide] (Dansyl-Leu-Ala-Arg-NH2) to `CSCC[C@H](NC(=O)[C@H](CC(C)C)NS(=O)(=O)c1cccc2c(N(C)C)cccc12)C(=O)N[C@@H](CCCNC(=N)N)C(N)=O` [Dansyl-LMR-amide] (Dansyl-Leu-Met-Arg-NH2), the “Relative Binding Index (RBI)” value rises from −81 a.u to −32 a.u.

Going from `C[C@H](NC(=O)[C@H](Cc1ccccc1)NS(=O)(=O)c1cccc2c(N(C)C)cccc12)C(=O)N[C@@H](CCCNC(=N)N)C(N)=O` [Dansyl-FAR-amide] (Dansyl-Phe-Ala-Arg-NH2) to `CN(C)c1cccc2c(S(=O)(=O)N[C@@H](Cc3ccccc3)C(=O)N[C@@H](CO)C(=O)N[C@@H](CCCNC(=N)N)C(N)=O)cccc12` [Dansyl-FSR-amide] (Dansyl-Phe-Ser-Arg-NH2), the “Relative Binding Index (RBI)” value rises from −40 a.u to 30 a.u.

Going from `CC(C)C[C@H](NC(=O)[C@H](CCC(N)=O)NS(=O)(=O)c1cccc2c(N(C)C)cccc12)C(=O)N[C@@H](CCCNC(=N)N)C(N)=O` [Dansyl-QLR-amide] (Dansyl-Gln-Leu-Arg-NH2) to `CC[C@H](C)[C@H](NS(=O)(=O)c1cccc2c(N(C)C)cccc12)C(=O)N[C@@H](CCC(N)=O)C(=O)N[C@@H](CCCNC(=N)N)C(N)=O` [Dansyl-IQR-amide] (Dansyl-Ile-Gln-Arg-NH2), the “Relative Binding Index (RBI)” value falls from 13 a.u to 3 a.u.

Going from `CN(C)c1cccc2c(S(=O)(=O)N[C@@H](CC(N)=O)C(=O)N[C@@H](CC(=O)O)C(=O)N[C@@H](CCCNC(=N)N)C(N)=O)cccc12` [Dansyl-NDR-amide] (Dansyl-Asn-Asp-Arg-NH2) to `CN(C)c1cccc2c(S(=O)(=O)N[C@@H](CCC(N)=O)C(=O)N[C@@H](CC(=O)O)C(=O)N[C@@H](CCCNC(=N)N)C(N)=O)cccc12` [Dansyl-QDR-amide] (Dansyl-Gln-Asp-Arg-NH2), the “Relative Binding Index (RBI)” value rises from −5 a.u to 3 a.u.

First: C[C@@H](O)[C@H](NC(=O)[C@@H]1CCCN1S(=O)(=O)c1cccc2c(N(C)C)cccc12)C(=O)N[C@@H](CCCNC(=N)N)C(N)=O [Dansyl-PTR-amide] (Dansyl-Pro-Thr-Arg-NH2)
Second: C[C@@H](O)[C@H](NS(=O)(=O)c1cccc2c(N(C)C)cccc12)C(=O)N[C@@H](CCC(N)=O)C(=O)N[C@@H](CCCNC(=N)N)C(N)=O [Dansyl-TQR-amide] (Dansyl-Thr-Gln-Arg-NH2)
The “Relative Binding Index (RBI)” value of the first is lower: −42 a.u for the first, 5 a.u for the second.

Going from `CN(C)c1cccc2c(S(=O)(=O)N[C@@H](Cc3c[nH]cn3)C(=O)N[C@@H](CCC(=O)O)C(=O)N[C@@H](CCCNC(=N)N)C(N)=O)cccc12` [Dansyl-HER-amide] (Dansyl-His-Glu-Arg-NH2) to `CSCC[C@H](NS(=O)(=O)c1cccc2c(N(C)C)cccc12)C(=O)N[C@@H](Cc1c[nH]cn1)C(=O)N[C@@H](CCCNC(=N)N)C(N)=O` [Dansyl-MHR-amide] (Dansyl-Met-His-Arg-NH2), the “Relative Binding Index (RBI)” value falls from 17 a.u to −50 a.u.

Going from `CN(C)c1cccc2c(S(=O)(=O)NCC(=O)N[C@@H](Cc3c[nH]c4ccccc34)C(=O)N[C@@H](CCCNC(=N)N)C(N)=O)cccc12` [Dansyl-GWR-amide] (Dansyl-Gly-Trp-Arg-NH2) to `C[C@H](NS(=O)(=O)c1cccc2c(N(C)C)cccc12)C(=O)N[C@@H](Cc1c[nH]c2ccccc12)C(=O)N[C@@H](CCCNC(=N)N)C(N)=O` [Dansyl-AWR-amide] (Dansyl-Ala-Trp-Arg-NH2), the “Relative Binding Index (RBI)” value falls from 34 a.u to 21 a.u.

First: CN(C)c1cccc2c(S(=O)(=O)N[C@@H](CC(N)=O)C(=O)N[C@@H](Cc3ccccc3)C(=O)N[C@@H](CCCNC(=N)N)C(N)=O)cccc12 [Dansyl-NFR-amide] (Dansyl-Asn-Phe-Arg-NH2)
Second: CSCC[C@H](NS(=O)(=O)c1cccc2c(N(C)C)cccc12)C(=O)N[C@@H](CC(N)=O)C(=O)N[C@@H](CCCNC(=N)N)C(N)=O [Dansyl-MNR-amide]
The “Relative Binding Index (RBI)” value of the first is higher: 11 a.u for the first, −43 a.u for the second.

First: CC(C)[C@H](NS(=O)(=O)c1cccc2c(N(C)C)cccc12)C(=O)N[C@@H](CCC(=O)O)C(=O)N[C@@H](CCCNC(=N)N)C(N)=O [Dansyl-VER-amide] (Dansyl-Val-Glu-Arg-NH2)
Second: CN(C)c1cccc2c(S(=O)(=O)N[C@@H](CCC(=O)O)C(=O)N[C@@H](CC(=O)O)C(=O)N[C@@H](CCCNC(=N)N)C(N)=O)cccc12 [Dansyl-EDR-amide] (Dansyl-Glu-Asp-Arg-NH2)
The “Relative Binding Index (RBI)” value of the first is lower: −4 a.u for the first, −1 a.u for the second.

First: CN(C)c1cccc2c(S(=O)(=O)N[C@@H](CCCCN)C(=O)N[C@@H](CCCNC(=N)N)C(=O)N[C@@H](CCCNC(=N)N)C(N)=O)cccc12 [Dansyl-KRR-amide] (Dansyl-Lys-Arg-Arg-NH2)
Second: CN(C)c1cccc2c(S(=O)(=O)N[C@@H](CCCNC(=N)N)C(=O)N[C@@H](CCC(N)=O)C(=O)N[C@@H](CCCNC(=N)N)C(N)=O)cccc12 [Dansyl-RQR-amide] (Dansyl-Arg-Gln-Arg-NH2)
The “Relative Binding Index (RBI)” value of the first is higher: 23 a.u for the first, 20 a.u for the second.

First: C[C@@H](O)[C@H](NC(=O)[C@H](Cc1c[nH]c2ccccc12)NS(=O)(=O)c1cccc2c(N(C)C)cccc12)C(=O)N[C@@H](CCCNC(=N)N)C(N)=O [Dansyl-WTR-amide] (Dansyl-Trp-Thr-Arg-NH2)
Second: CC(C)[C@H](NS(=O)(=O)c1cccc2c(N(C)C)cccc12)C(=O)N[C@@H](Cc1c[nH]c2ccccc12)C(=O)N[C@@H](CCCNC(=N)N)C(N)=O [Dansyl-VWR-amide] (Dansyl-Val-Trp-Arg-NH2)
The “Relative Binding Index (RBI)” value of the first is higher: 14 a.u for the first, 4 a.u for the second.

Compared with `C[C@H](NS(=O)(=O)c1cccc2c(N(C)C)cccc12)C(=O)N[C@@H](CCCCN)C(=O)N[C@@H](CCCNC(=N)N)C(N)=O` [Dansyl-AKR-amide] (Dansyl-Ala-Lys-Arg-NH2), `CSCC[C@H](NC(=O)[C@H](CCCCN)NS(=O)(=O)c1cccc2c(N(C)C)cccc12)C(=O)N[C@@H](CCCNC(=N)N)C(N)=O` [Dansyl-KMR-amide] (Dansyl-Lys-Met-Arg-NH2) is higher in “Relative Binding Index (RBI)” value: 10 a.u for the first, 25 a.u for the second.

First: CC(C)[C@H](NC(=O)[C@@H](NS(=O)(=O)c1cccc2c(N(C)C)cccc12)C(C)C)C(=O)N[C@@H](CCCNC(=N)N)C(N)=O [Dansyl-VVR-amide] (Dansyl-Val-Val-Arg-NH2)
Second: CC(C)C[C@H](NS(=O)(=O)c1cccc2c(N(C)C)cccc12)C(=O)N[C@@H](Cc1cnc[nH]1)C(=O)N[C@@H](CCCNC(=N)N)C(N)=O [Dansyl-LHR-amide] (Dansyl-Leu-His-Arg-NH2)
The “Relative Binding Index (RBI)” value of the first is higher: −9 a.u for the first, −38 a.u for the second.

Going from `CN(C)c1cccc2c(S(=O)(=O)N[C@@H](Cc3ccc(O)cc3)C(=O)NCC(=O)N[C@@H](CCCNC(=N)N)C(N)=O)cccc12` [Dansyl-YGR-amide] (Dansyl-Tyr-Gly-Arg-NH2) to `CN(C)c1cccc2c(S(=O)(=O)N[C@@H](CCCNC(=N)N)C(=O)N[C@@H](Cc3c[nH]c4ccccc34)C(=O)N[C@@H](CCCNC(=N)N)C(N)=O)cccc12` [Dansyl-RWR-amide] (Dansyl-Arg-Trp-Arg-NH2), the “Relative Binding Index (RBI)” value rises from 12 a.u to 16 a.u.

Compared with `CN(C)c1cccc2c(S(=O)(=O)N[C@@H](CCCCN)C(=O)N3CCC[C@H]3C(=O)N[C@@H](CCCNC(=N)N)C(N)=O)cccc12` [Dansyl-KPR-amide] (Dansyl-Lys-Pro-Arg-NH2), `CN(C)c1cccc2c(S(=O)(=O)N[C@@H](CCCCN)C(=O)N[C@@H](CCC(N)=O)C(=O)N[C@@H](CCCNC(=N)N)C(N)=O)cccc12` [Dansyl-KQR-amide] (Dansyl-Lys-Gln-Arg-NH2) is higher in “Relative Binding Index (RBI)” value: 28 a.u for the first, 38 a.u for the second.
